Data: patent US10472341B2, “Bicyclic tetrahydrothiazepine derivatives useful for the treatment of neoplastic and/or infectious diseases” (APEIRON BIOLOGICS AG, priority 2015, dated 2019)
Like-named read-outs stand apart in the source and are kept apart here.

Legend:
[1] = tested on: aCD3/aCD28-stimulated human PBMCs; assay: Cytokine production in aCD3/aCD28 stimulated human PBMCs; format: cell-based; conditions: PBMC, 18 h
Procedure: In order to determine the immune modulatory effect of compounds of compounds of the present invention in human PBMCs, compounds were assessed in the following assay set-up:
Buffy coats were obtained from a local hospital, diluted 3 fold with PBS and layered onto an isotonic Ficoll separating solution d=1.077 g/mL in 50 mL centrifuge tubes. The tubes were centrifuged at 914 g for 25 min at room temperature with the brakes off. The PBMC layer was removed and washed twice with ice-cold PBS. Erythrocytes were lysed by addition of ddH2O and cells were resuspended in X-Vivo15 (Lonza).
1e6 cells/mL were stimulated with soluble anti CD3/CD28 antibodies (1 μg/mL both, clones OKT3 and 28.2) in the presence of described compounds. Cells were incubated for 18 h at 37° C., 5% CO2. Assay plates were centrifuged at 400 g for 5 min and supernatants harvested. Cytokine concentration in tissue culture supernatants were determined with MSD or HTRF kits (MSD and Cisbio), according to manufacturer's instructions.

[2] = tested on: aCD3/aCD28-stimulated human CD4+-T-cells; assay: IL-2 production and activation markers in aCD3/aCD28 stimulated isolated human CD4+-T-cells; format: cell-based; conditions: IL-2 production at 3 μM compound
Procedure: • Buffy coat content was transferred to sterile plastic bottle and filled up to 480 ml with PBS, and distributed equally to 16×50 ml tubes (30 ml/tube) • Underlayed with ˜11 ml Lymphoprep and centrifuged 20 min (2200 rpm) • The interphase containing lymphocytes was taken off with transfer pipette, cells were washed twice with PBS and pooled to one tube to determine cell count (Coulter Diff ACT) Isolation of Immune Cell Subfractions from PBMCs by MACS • PBMCs were resuspended in MACS buffer (80 μl MACS-buffer/10^7 cells) and cells were isolated with Auto-MACS device using respective kits following manufacturer's recommendations TCR Stimulation and Measurement of T Cell Activation
Isolated T cells were plated in Xvivo medium at 1.5*10 ^5 cells per in 96 well culture plates and TCR-stimulated with anti-CD3/28 mAbs in the presence of compound as indicated. Cytokine production was determined at 24 h or 48 h following TCR stimulation in cell culture supernatants using commercially available ELISA kits (BD and eBioscience) as recommended by the manufacturer. T cell proliferation and CD25 expression (CD25-PC5 reagent purchased from Beckman Coulter) was determined by flow cytometry (Beckman-Coulter FC500) and analysed with Kaluza Software. For measurement of CD69 expression, isolated CD4 and CD8 T cells were plated in Xvivo medium at […] per in 96 well culture plates and TCR-stimulated with anti-CD3/28 mAbs in the presence of compound. CD69 expression was determined at 24 h following TCR stimulation by flow cytometry (CD4eF450, CD8APCeF780 and CD69-PC7 reagent purchased from eBioscience) and analysed with Kaluza Software.
Buffy coats were obtained from Austrian Red Cross, diluted 3 fold with PBS and layered onto an isotonic Ficoll separating solution d=1.077 g/m in 50 ml centrifuge tubes. The tubes were centrifuged at 914 g for 25 min at room temperature with the brakes off. The PBMC layer was removed and washed twice with ice-cold PBS. CD4 T cells were isolated using CD4 microbeads (Milteny) and the AutoMACS device following manufacturer's instructions.
Compound examples of the present invention were classified according to the following activity criteria and are listed in Table 4a: • Activity Class A: IL-2 production at 3 μM compound concentration >10 ng/mL • Activity Class B: IL-2 production at 3 μM compound concentration between 2-10 ng/mL • Activity Class C: IL-2 production at 3 μM compound concentration between 2-fold increase as compared to mean IL-2 production of stimulated cells in the absence of compounds and <2 ng/mL

[3] = enhancement of IFN-γ production, read-out: Activity Class IFN-γ
[4] = enhancement of IL-2 production, read-out: Activity Class IL-2

| SMILES | EC50 [1, 3] [µM] | EC50 [1, 4] [µM] | Activity Class CD4+ [2] |
| --- | --- | --- | --- |
| CCCCNC(=O)c1ccc2c(c1)N(Cc1ccc(C(C)(C)C)cc1)C(=O)[C@@H](N)CS2.Cl [Example 2, (3R)-3-amino-N-butyl-5-[(4-tert-butylphenyl)methyl]-4-oxo-2,3,4,5-tetrahydro-1,5-benzothiazepine-7-carboxamide hydrochloride] | < 1.58 | 1.58 to 5.01 | B (IL-2 production at 3 μM compound concentration between 2-10 ng/mL) |
| CCCCNC(=O)c1ccc2c(c1)N(Cc1ccc(OC(F)(F)F)cc1)C(=O)[C@@H](N)CS2.Cl [Example 3, (3R)-3-amino-N-butyl-4-oxo-5-{[4-(trifluoromethoxy)phenyl]methyl}-2,3,4,5-tetrahydro-1,5-benzothiazepine-7-carboxamide hydrochloride] | 1.58 to 5.01 | 1.58 to 5.01 | B (IL-2 production at 3 μM compound concentration between 2-10 ng/mL) |
| CC(C)NC(=O)c1ccc2c(c1)N(Cc1ccc(C(C)(C)C)cc1)C(=O)[C@@H](N)CS2.Cl [Example 4, (3R)-3-amino-5-[(4-tert-butylphenyl)methyl]-4-oxo-N-(propan-2-yl)-2,3,4,5-tetrahydro-1,5-benzothiazepine-7-carboxamide hydrochloride] | > 5.01 | 1.58 to 5.01 | C (IL-2 production at 3 μM compound concentration between 2-fold increase as compared to mean IL-2 production of stimulated cells in the absence of compounds and <2 ng/mL) |
| CCCCNC(=O)c1cc2c(cc1F)SC[C@H](N)C(=O)N2Cc1ccc(OC(F)(F)F)cc1.Cl [Example 5, (3R)-3-amino-N-butyl-8-fluoro-4-oxo-5-{[4-(trifluoromethoxy)phenyl]methyl}-2,3,4,5-tetrahydro-1,5-benzothiazepine-7-carboxamide hydrochloride] | 1.58 to 5.01 | > 5.01 | B (IL-2 production at 3 μM compound concentration between 2-10 ng/mL) |
| Cl.N[C@H]1CSc2ccc(C(=O)NCc3ccccc3)cc2N(Cc2ccc(OC(F)(F)F)cc2)C1=O [Example 6, (3R)-3-amino-N-benzyl-4-oxo-5-{[4-(trifluoromethoxy)phenyl]methyl}-2,3,4,5-tetrahydro-1,5-benzothiazepine-7-carboxamide hydrochloride] | < 1.58 | 1.58 to 5.01 | B (IL-2 production at 3 μM compound concentration between 2-10 ng/mL) |
| COc1ccc(CNC(=O)c2ccc3c(c2)N(Cc2ccc(OC(F)(F)F)cc2)C(=O)[C@@H](N)CS3)cc1.Cl [Example 7, (3R)-3-amino-N-[(4-methoxyphenyl)methyl]-4-oxo-5-{[4-(trifluoromethoxy)-phenyl]methyl}-2,3,4,5-tetrahydro-1,5-benzothiazepine-7-carboxamide hydrochloride] | < 1.58 | 1.58 to 5.01 | B (IL-2 production at 3 μM compound concentration between 2-10 ng/mL) |
| CCCCNC(=O)c1ccc2c(c1)N(Cc1cccc(OC(F)(F)F)c1)C(=O)[C@@H](N)CS2.Cl [Example 9, (3R)-3-amino-N-butyl-4-oxo-5-{[3-(trifluoromethoxy)phenyl]methyl}-2,3,4,5-tetrahydro-1,5-benzothiazepine-7-carboxamide hydrochloride] | 1.58 to 5.01 | > 5.01 | C (IL-2 production at 3 μM compound concentration between 2-fold increase as compared to mean IL-2 production of stimulated cells in the absence of compounds and <2 ng/mL) |
| CCCCNC(=O)c1ccc2c(c1)N(Cc1ccc(Cl)cc1)C(=O)[C@@H](N)CS2.Cl [Example 10, (3R)-3-amino-N-butyl-5-[(4-chlorophenyl)methyl]-4-oxo-2,3,4,5-tetrahydro-1,5-benzothiazepine-7-carboxamide hydrochloride] | 1.58 to 5.01 | > 5.01 | C (IL-2 production at 3 μM compound concentration between 2-fold increase as compared to mean IL-2 production of stimulated cells in the absence of compounds and <2 ng/mL) |
| Cl.N[C@H]1CSc2ccc(C(=O)NCc3ccc(N4CCOCC4)cc3)cc2N(Cc2ccc(OC(F)(F)F)cc2)C1=O [Example 11, (3R)-3-amino-N-{[4-(morpholin-4-yl)phenyl]methyl}-4-oxo-5-{[4-(trifluoromethoxy)-phenyl]methyl}-2,3,4,5-tetrahydro-1,5-benzothiazepine-7-carboxamide hydrochloride] | > 5.01 | > 5.01 | C (IL-2 production at 3 μM compound concentration between 2-fold increase as compared to mean IL-2 production of stimulated cells in the absence of compounds and <2 ng/mL) |
| CC(C)(C)C(=O)NCCCNC(=O)c1ccc2c(c1)N(Cc1ccc(OC(F)(F)F)cc1)C(=O)[C@@H](N)CS2.Cl [Example 12, N-(3-{[(3R)-3-amino-4-oxo-5-{[4-(trifluoromethoxy)phenyl]methyl}-2,3,4,5-tetrahydro-1,5-benzothiazepin-7-yl]formamido}propyl)-2,2-dimethylpropanamide hydrochloride] | > 5.01 | > 5.01 | C (IL-2 production at 3 μM compound concentration between 2-fold increase as compared to mean IL-2 production of stimulated cells in the absence of compounds and <2 ng/mL) |
| CNC(=O)c1ccc2c(c1)N(Cc1ccc(OC(F)(F)F)cc1)C(=O)[C@@H](N)CS2.Cl [Example 17, (3R)-3-amino-N-methyl-4-oxo-5-{[4-(trifluoromethoxy)phenyl]methyl}-2,3,4,5-tetrahydro-1,5-benzothiazepine-7-carboxamide hydrochloride] | – | > 5.01 | C (IL-2 production at 3 μM compound concentration between 2-fold increase as compared to mean IL-2 production of stimulated cells in the absence of compounds and <2 ng/mL) |
| CCNC(=O)c1ccc2c(c1)N(Cc1ccc(OC(F)(F)F)cc1)C(=O)[C@@H](N)CS2.Cl [Example 18, (3R)-3-amino-N-ethyl-4-oxo-5-{[4-(trifluoromethoxy)phenyl]methyl}-2,3,4,5-tetrahydro-1,5-benzothiazepine-7-carboxamide hydrochloride] | < 1.58 | 1.58 to 5.01 | C (IL-2 production at 3 μM compound concentration between 2-fold increase as compared to mean IL-2 production of stimulated cells in the absence of compounds and <2 ng/mL) |
| CCCCNC(=O)c1ccc2c(c1)N(Cc1ccc(C#N)cc1)C(=O)[C@@H](N)CS2.Cl [Example 21, (3R)-3-amino-N-butyl-5-[(4-cyanophenyl)methyl]-4-oxo-2,3,4,5-tetrahydro-1,5-benzothiazepine-7-carboxamide hydrochloride] | < 1.58 | > 5.01 | C (IL-2 production at 3 μM compound concentration between 2-fold increase as compared to mean IL-2 production of stimulated cells in the absence of compounds and <2 ng/mL) |
| Cl.N[C@H]1CSc2ccc(C(=O)NCCCC(F)(F)F)cc2N(Cc2ccc(Cl)cc2)C1=O [Example 22, (3R)-3-amino-5-[(4-chlorophenyl)methyl]-4-oxo-N-(4,4,4-trifluorobutyl)-2,3,4,5-tetrahydro-1,5-benzothiazepine-7-carboxamide hydrochloride] | 1.58 to 5.01 | 1.58 to 5.01 | B (IL-2 production at 3 μM compound concentration between 2-10 ng/mL) |
| Cl.N[C@H]1CSc2ccc(C(=O)NCC3CCOCC3)cc2N(Cc2ccc(Cl)cc2)C1=O [Example 23, (3R)-3-amino-5-[(4-chlorophenyl)methyl]-N-(oxan-4-ylmethyl)-4-oxo-2,3,4,5-tetrahydro-1,5-benzothiazepine-7-carboxamide hydrochloride] | 1.58 to 5.01 | > 5.01 | B (IL-2 production at 3 μM compound concentration between 2-10 ng/mL) |
